Our source for the IC50 values is patent US20070049593A1 (priority 2004, published 2007).

In general, IC50 refers to the concentration that inhibits the measured activity by half.

For the assay, the target named is T1, HCV polymerase (Hepatitis C virus genotype 1b, UniProt P26663).
T1 construct: a region encoding NS5B (J Virol 1991 March, 65(3), 1105-13, 544 amino acids after deletion of 47 amino acids on the C-terminal); 6xHis (C); made in house; host or cells: Escherichia coli
Put plainly: biochemical. Details: species or system HCV BK strain. The procedure, abridged: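 His-tagged NS5B (BK strain, 47-aa C-terminal deletion, E. coli-expressed) at 0.5 μg/ml copied 5 μg/ml run-off RNA bearing the HCV 3′ UTR with 2 μM UTP plus [3H]UTP, 50 μM ATP/GTP, in pH 7.5 Tris with 5 mM MgCl2, 25 °C, 90 min. TCA-precipitated RNA was counted and IC50 calculated.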

SMILES strings stand for the structures. Counter-ions that a name gives are not always drawn.

T1 sequence (P26663 2420-2963): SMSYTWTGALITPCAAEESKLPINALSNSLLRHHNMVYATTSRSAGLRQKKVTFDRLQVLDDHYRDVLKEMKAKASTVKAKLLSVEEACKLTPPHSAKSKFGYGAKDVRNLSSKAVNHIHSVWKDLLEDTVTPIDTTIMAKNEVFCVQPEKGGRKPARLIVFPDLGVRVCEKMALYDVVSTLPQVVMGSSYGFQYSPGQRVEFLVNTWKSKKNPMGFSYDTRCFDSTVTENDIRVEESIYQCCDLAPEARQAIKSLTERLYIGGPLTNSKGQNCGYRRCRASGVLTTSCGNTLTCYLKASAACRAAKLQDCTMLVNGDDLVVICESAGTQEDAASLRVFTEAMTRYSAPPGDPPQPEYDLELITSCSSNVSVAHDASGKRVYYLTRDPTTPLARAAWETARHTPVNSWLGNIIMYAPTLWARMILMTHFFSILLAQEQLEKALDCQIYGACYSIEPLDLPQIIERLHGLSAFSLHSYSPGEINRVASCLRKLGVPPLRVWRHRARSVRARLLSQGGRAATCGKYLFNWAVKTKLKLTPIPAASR

Turning to `CN(CC(=O)N1CCCCC1)c1cccc2c1OCCn1c-2c(C2CCCCC2)c2ccc(C(=O)O)cc21` [Example 2-486, 12-cyclohexyl-4-{N-methyl-N-[2-oxo-2-(piperidin-1-yl)ethyl]amino}-6,7-dihydro-5-oxa-7a-azadibenzo[a,e]azulene-9-carboxylic acid], the IC50 was less than 100 nM.

The compound `COc1ccc2c(c1)OCCn1c-2c(C2CCCCC2)c2ccc(C(=O)NC3(C(=O)Nc4ccc(S(=O)(=O)O)cc4)CCC3)cc21` [Example 2-523, 4-({1-[(12-cyclohexyl-3-methoxy-6,7-dihydro-5-oxa-7a-azadibenzo[a,e]azulene-9-carbonyl)amino]cyclobutanecarbonyl}amino)benzenesulfonic acid] returned an IC50 of less than 100 nM. Compound `COc1ccc2c(c1)OCCn1c-2c(C2CCCCC2)c2ccc(C(=O)N[C@@H](Cc3ccc(O)cc3)C3=NC(C)(C)C(=O)O3)cc21` [Example 2-524, N—[(S)-1-(4,4-dimethyl-5-oxo-4,5-dihydrooxazol-2-yl)-2-(4-hydroxyphenyl)ethyl]-12-cyclohexyl-3-methoxy-6,7-dihydro-5-oxa-7a-azadibenzo[a,e]azulene-9-carboxamide] displayed an IC50 of less than 100 nM. Take `COc1ccc2c(c1)OCCn1c-2c(C2CCCCC2)c2ccc(C(=O)N[C@@H](Cc3ccc(OCc4ccccc4)cc3)c3n[nH]c(C)n3)cc21` [Example 2-525, N—[(S)-2-(4-benzyloxyphenyl)-1-(5-methyl-1H-1,2,4-triazol-3-yl)ethyl]-12-cyclohexyl-3-methoxy-6,7-dihydro-5-oxa-7a-azadibenzo[a,e]azulene-9-carboxamide]: the IC50 was less than 100 nM.

Consider `COc1ccc2c(c1)OCCn1c-2c(C2CCCCC2)c2ccc(C(=O)N[C@@H](Cc3ccc(O)cc3)c3n[nH]c(C)n3)cc21` [Example 2-526, N—[(S)-2-(4-hydroxyphenyl)-1-(5-methyl-1H-1,2,4-triazol-3-yl)ethyl]-12-cyclohexyl-3-methoxy-6,7-dihydro-5-oxa-7a-azadibenzo[a,e]azulene-9-carboxamide], for which the 50% inhibitory concentration (IC50) is less than 100 nM. The value for `CNC(=O)COc1ccc2[nH]c(C3(NC(=O)c4ccc5c(C6CCCCC6)c6n(c5c4)CCOc4cc(OC)ccc4-6)CCC3)nc2c1` [Example 2-527, N-[1-(5-methylcarbamoylmethoxy-1H-benzimidazol-2-yl)cyclobutyl]-12-cyclohexyl-3-methoxy-6,7-dihydro-5-oxa-7a-azadibenzo[a,e]azulene-9-carboxamide] was less than 100 nM.

The compound `COc1ccc2c(c1)OCCn1c-2c(C2CCCCC2)c2ccc(C(=O)NC3(C(=O)Nc4ccc(/C=C(\C)C(=O)O)cc4)CCC3)cc21` [Example 2-528, (E)-3-[4-({1-[(12-cyclohexyl-3-methoxy-6,7-dihydro-5-oxa-7a-azadibenzo[a,e]azulene-9-carbonyl)amino]cyclobutanecarbonyl}amino)phenyl]-2-methylacrylic acid] yielded an IC50 of less than 100 nM. Regarding `COc1ccc2c(c1)OCCn1c-2c(C2CCCCC2)c2ccc(C(=O)NC3(C(=O)Nc4ccc(/C(C)=C/C(=O)O)cc4)CCC3)cc21` [Example 2-529, (E)-3-[4-({1-[(12-cyclohexyl-3-methoxy-6,7-dihydro-5-oxa-7a-azadibenzo[a,e]azulene-9-carbonyl)amino]cyclobutanecarbonyl}amino)phenyl]but-2-enoic acid], the IC50 is less than 100 nM.

As for `COc1ccc2c(c1)OCCn1c-2c(C2CCCCC2)c2ccc(C(=O)NC3(C(=O)Nc4ccc(/C=C/C(=O)O)cc4OCCOCc4ccccc4)CCC3)cc21` [Example 2-530, (E)-3-[3-(2-benzyloxyethoxy)-4-({1-[(12-cyclohexyl-3-methoxy-6,7-dihydro-5-oxa-7a-azadibenzo[a,e]azulene-9-carbonyl)amino]cyclobutanecarbonyl}amino)phenyl]acrylic acid], the IC50 is less than 100 nM. As for `COc1ccc2c(c1)OCCn1c-2c(C2CCCCC2)c2ccc(C(=O)NC3(C(=O)Nc4ccc(/C=C/C(=O)O)c(OC)c4)CCC3)cc21` [Example 2-531, (E)-3-[4-({1-[(12-cyclohexyl-3-methoxy-6,7-dihydro-5-oxa-7a-azadibenzo[a,e]azulene-9-carbonyl)amino]cyclobutanecarbonyl}amino)-2-methoxyphenyl]acrylic acid], the IC50 was less than 100 nM.

In turn, `COC[C@](C)(NC(=O)c1ccc2c(C3CCCCC3)c3n(c2c1)CCOc1cc(OC)ccc1-3)C(=O)O` [Example 2-532, (S)-2-[(12-cyclohexyl-3-methoxy-6,7-dihydro-5-oxa-7a-azadibenzo[a,e]azulene-9-carbonyl)amino]-3-methoxy-2-methylpropionic acid] showed an IC50 of less than 100 nM. To `CCn1c([C@H](Cc2ccc(O)cc2)NC(=O)c2ccc3c(C4CCCCC4)c4n(c3c2)CCOc2cc(OC)ccc2-4)n[nH]c1=O` [Example 2-533, N—[(S)-1-(4-ethyl-5-oxo-4,5-dihydro-1H-1,2,4-triazol-3-yl)-2-(4-hydroxyphenyl)ethyl]-12-cyclohexyl-3-methoxy-6,7-dihydro-5-oxa-7a-azadibenzo[a,e]azulene-9-carboxamide] belongs less than 100 nM; to `O=C(O)c1ccc2c(C3CCCCC3)c3n(c2c1)CCOc1c(-c2ccccc2/C=C/C(=O)N2CCCCC2)cccc1-3` [Example 2-534, 12-cyclohexyl-4-{2-[(E)-3-oxo-3-(piperidin-1-yl)propenyl]phenyl}-6,7-dihydro-5-oxa-7a-azadibenzo[a,e]azulene-9-carboxylic acid], less than 100 nM; to `O=C(O)c1ccc2c(C3CCCCC3)c3n(c2c1)CCOc1c(-c2ccccc2CCC(=O)N2CCCCC2)cccc1-3` [Example 2-535, 12-cyclohexyl-4-{2-[3-oxo-3-(piperidin-1-yl)propyl]phenyl}-6,7-dihydro-5-oxa-7a-azadibenzo[a,e]azulene-9-carboxylic acid], less than 100 nM. For the compound `O=C(O)c1ccc2c(C3CCCCC3)c3n(c2c1)CCOc1c(-c2ccccc2CCCN2CCCCC2)cccc1-3` [Example 2-536, 12-cyclohexyl-4-{2-[3-(piperidin-1-yl)propyl]phenyl}-6,7-dihydro-5-oxa-7a-azadibenzo[a,e]azulene-9-carboxylic acid monohydrochloride], the IC50 is less than 100 nM.

With `COC[C@](C)(NC(=O)c1ccc2c(C3CCCCC3)c3n(c2c1)CCOc1cc(OC)ccc1-3)C(=O)Nc1ccc(/C=C/C(=O)O)cc1` [Example 2-537, (E)-3-{4-((S)-2-[(12-cyclohexyl-3-methoxy-6,7-dihydro-5-oxa-7a-azadibenzo[a,e]azulene-9-carbonyl)amino]-3-methoxy-2-methylpropionylamino}phenyl)acrylic acid], the IC50 is less than 100 nM. As to `COc1ccc2c(c1)OCCn1c-2c(C2CCCCC2)c2ccc(C(=O)N[C@@H](Cc3ccc(OCc4ccccc4)cc3)C3OCCO3)cc21` [Example 2-538, N—[(S)-2-(4-benzyloxyphenyl)-1-(1,3-dioxolan-2-yl)ethyl]-12-cyclohexyl-3-methoxy-6,7-dihydro-5-oxa-7a-azadibenzo[a,e]azulene-9-carboxamide], the IC50 was less than 100 nM. `CC[N+](CC)(CC)Cc1ccc(CC(NC(=O)c2ccc3c(C4CCCCC4)c4n(c3c2)CCOc2cc(OC)ccc2-4)C(=O)OC)cc1` (stereo not drawn) [Example 2-539, N-(4-{2-[(12-cyclohexyl-3-methoxy-6,7-dihydro-5-oxa-7a-azadibenzo[a,e]azulene-9-carbonyl)amino]-2-(methoxycarbonyl)ethyl}benzyl)-N,N,N-triethylammonium chloride] registered an IC50 of less than 100 nM.
